Test system: PER1 gene expression in skin cells
Experiment: PER1 gene expression in skin cells
Assay type: cell-based
From the text: A specific example includes a botanical extract from Echinacea purpurea sold by Symrise under the brand name Symfinity™ 1298 which is an extract of Echinacea purpurea which is standardized during the extraction process to contain about 3% by weight of the total extract composition of cichoric acid. Echinacea extracts from different sources will vary in cichoric acid content, and as such will yield variable results in induction of PER1 gene expression. […] Moreover, each species of Echinacea will differ in content of phenolic and cichoric acids. Ethanolic extract of the roots of Echinacea purpura will provide more cichoric acid than ethanolic extracts of Echineacea angustifolia or Echinacea pallida. The content of active ingredients in any extract is also very dependent on the method of extraction. For example, it is known that in many cases enzymatic browning during the extraction process will reduce the phenolic acid content of the resulting extract.

O=C(/C=C/c1ccc(O)c(O)c1)O[C@@H](C(=O)O)[C@@H](O)C(=O)O [caftaric acid]
PER1 gene expression: does not increase

Reference: patent US10383815B2, “Method and compositions for improving selective catabolysis in cells of keratin surfaces” (ELC Management LLC, priority 2012, dated 2019)
